Common to all, as to format: in vivo
Settings in all cases: 50 ppm, 100 = 100% disease control, 0 = no control

Test [1] concerns Puccinia recondita f. sp. Tritici. The experiment in a line: Test B: preventive spray on wheat seedlings, wheat leaf rust disease rating. Put shortly:
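Compounds in acetone/water (50/50) with 50-250 ppm PEG400 sprayed to run-off on wheat seedlings; inoculated with P. recondita spores next day. Held 24 h saturated at 20° C., then 7 days in growth chamber at 20° C. before rating; 100 = full control, 0 = none versus controls.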

The test system of the next test is Botrytis cinerea. The experiment in a line: Test E: preventive spray on tomato seedlings, tomato Botrytis disease rating. Put shortly:
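Tomato seedlings sprayed to run-off with compound suspended in acetone/water with PEG400 surfactant, then inoculated next day with Botrytis cinerea spores. Held 48 h saturated at 20 °C, then 3 days at 24 °C; disease rated visually, 0 to 100% control relative to controls.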

The subject of a further test is Phakopsora pachyrhizi. The experiment in a line: Test D: preventive spray on soybean seedlings, Asian soybean rust disease rating. Summed up: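 Compounds in acetone/water (50/50) with 50–250 ppm PEG400 sprayed to run-off on soybean seedlings; inoculated next day with P. pachyrhizi spores, held 24 h saturated at 22° C, then 8 days at 22° C before visual disease rating.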

For a further test, the system named is Zymoseptoria tritici. The experiment in a line: Test A: preventive spray on wheat seedlings, wheat leaf blotch disease rating. Summed up:
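Compounds in acetone/water (50/50) with 50–250 ppm PEG400, sprayed to run-off on wheat seedlings. Inoculated next day with Z. tritici spores, 48 h saturated atmosphere at 24 °C, then 17 days at 20 °C before disease rating.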

The subject of a further test is Alternaria solani. The experiment in a line: Test F: preventive spray on tomato seedlings, tomato early blight disease rating. Summed up:
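Tomato seedlings were sprayed to run-off with compound suspensions in ppm (acetone/water with PEG400 surfactant) and inoculated with Alternaria solani spores the next day. Plants were held 48 h saturated at 27 °C, then 3 days at 20 °C. Disease was rated visually, with 100 as full control and 0 as none, relative to controls.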

Test [2] deals with Blumeria graminis f. sp. Tritici. The experiment in a line: Test C: preventive spray on wheat seedlings, wheat powdery mildew disease rating. Summed up: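 Wheat seedlings sprayed to run-off with test suspension (acetone 3% dissolution, then acetone/water 50/50 with 50–250 ppm PEG400), inoculated next day with Blumeria graminis spore dust. Held 8 days at 20° C in growth chamber, then visually rated (100 = full control, 0 = none, relative to controls).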

In the case of `COc1ccc(Cl)c(-n2nc(OC)c(=O)cc2-c2ccc(F)cc2Cl)c1` [Compound 118], the “Test B disease control rating” value in test [1] was found to be 99%. For the same compound, the “Test E disease control rating” value with Botrytis cinerea is given as 97%. The “Test D disease control rating” value in the test with Phakopsora pachyrhizi stood at 0%. Moreover, the “Test A disease control rating” value in the test with Zymoseptoria tritici was determined as 80%. Besides, in the test with Alternaria solani, the “Test F disease control rating” value is 0%. The “Test C disease control rating” value in test [2] is listed as 56%.

`COC(=O)c1nn(-c2cc(OC)ccc2Cl)c(-c2ccccc2F)c(Cl)c1=O` [Compound 122]: in test [1], the “Test B disease control rating” value is reported as 19%. For the same compound, the “Test E disease control rating” value with Botrytis cinerea was determined as 0%. Besides, in the test with Phakopsora pachyrhizi, the “Test D disease control rating” value turned out to be 0%. For the same compound, the “Test A disease control rating” value in the test with Zymoseptoria tritici turned out to be 0%. For the same compound, in the test with Alternaria solani, the “Test F disease control rating” value is 0%. Also, the “Test C disease control rating” value in test [2] was found to be 0%.

For `COc1ccc(Cl)c(-n2nc(C)c(=O)c(Cl)c2-c2ccc(F)cc2Cl)c1` [Compound 123, 5-chloro-1-(2-chloro-5-methoxyphenyl)-6-(2-chloro-4-fluorophenyl)-3-methyl-4(1)-pyridazinone], the “Test B disease control rating” value in test [1] came to 100%. Moreover, the “Test E disease control rating” value in the test on Botrytis cinerea was 99%. In the test on Phakopsora pachyrhizi, the “Test D disease control rating” value turned out to be 100%. Besides, the “Test A disease control rating” value with Zymoseptoria tritici is recorded as 100%. In addition, the “Test F disease control rating” value in the test on Alternaria solani is recorded as 100%. In test [2], the “Test C disease control rating” value is 100%.

Take `COc1ccc(Cl)c(-n2nc(C)c(=O)c(Br)c2-c2ccc(F)cc2Cl)c1` [Compound 124, 5-bromo-1-(2-chloro-5-methoxyphenyl)-6-(2-chloro-4-fluorophenyl)-3-methyl-4(1)-pyridazinone]: the “Test B disease control rating” value in test [1] stood at 100%. Moreover, in the test with Botrytis cinerea, the “Test E disease control rating” value was 99%. For the same compound, the “Test D disease control rating” value in the test on Phakopsora pachyrhizi is 100%. Also, in the test on Zymoseptoria tritici, the “Test A disease control rating” value turned out to be 100%. The “Test F disease control rating” value in the test on Alternaria solani is listed as 100%. In test [2], the “Test C disease control rating” value was 100%.

With `CCOC(=O)c1nn(-c2cc(OC)cc(OC)c2)c(-c2ccc(F)cc2)c(C(=O)OCC)c1=O` [Compound 125], the “Test B disease control rating” value in test [1] was 28%. For the same compound, the “Test E disease control rating” value in the test with Botrytis cinerea is reported as 0%. In addition, the “Test D disease control rating” value in the test on Phakopsora pachyrhizi is on record as 0%. Further, the “Test A disease control rating” value in the test on Zymoseptoria tritici was found to be 3%. Besides, the “Test F disease control rating” value in the test on Alternaria solani was determined as 0%. In addition, the “Test C disease control rating” value in test [2] is on record as 0%.

With `CCOC(=O)c1nn(-c2cc(OC)cc(OC)c2Cl)c(-c2ccc(F)cc2)c(C(=O)OCC)c1=O` [Compound 126], in test [1], the “Test B disease control rating” value worked out at 28%. Besides, the “Test E disease control rating” value in the test on Botrytis cinerea turned out to be 0%. For the same compound, the “Test D disease control rating” value with Phakopsora pachyrhizi amounted to 0%. Moreover, the “Test A disease control rating” value with Zymoseptoria tritici is 0%. In addition, the “Test F disease control rating” value with Alternaria solani was 0%. Besides, the “Test C disease control rating” value in test [2] is listed as 0%.

With `CCOC(=O)c1nn(-c2cc(OC)cc(OC)c2Cl)c(-c2ccc(F)cc2F)c(C(=O)OCC)c1=O` [Compound 127], in test [1], the “Test B disease control rating” value is recorded as 41%. Besides, the “Test E disease control rating” value in the test on Botrytis cinerea was determined as 0%. In addition, the “Test D disease control rating” value in the test with Phakopsora pachyrhizi is given as 0%. Further, the “Test A disease control rating” value with Zymoseptoria tritici is 0%. The “Test F disease control rating” value in the test on Alternaria solani was 0%. Also, the “Test C disease control rating” value in test [2] was found to be 0%.

With `COc1ccc(-c2c(Cl)c(=O)c(C)nn2-c2cc(OC)ccc2Cl)c(Cl)c1` [Compound 129], the “Test B disease control rating” value in test [1] turned out to be 100%. The “Test E disease control rating” value in the test on Botrytis cinerea came to 98%. In addition, the “Test D disease control rating” value in the test with Phakopsora pachyrhizi is listed as 99%. Moreover, in the test with Zymoseptoria tritici, the “Test A disease control rating” value came out at 100%. In the test with Alternaria solani, the “Test F disease control rating” value turned out to be 100%. In addition, the “Test C disease control rating” value in test [2] turned out to be 99%.

Consider `COc1ccc(-c2c(Br)c(=O)c(C)nn2-c2cc(OC)ccc2Cl)c(Cl)c1` [Compound 130], for which the “Test B disease control rating” value in test [1] was 100%. Moreover, the “Test E disease control rating” value with Botrytis cinerea is given as 99%. The “Test D disease control rating” value in the test with Phakopsora pachyrhizi was 98%. Further, in the test with Zymoseptoria tritici, the “Test A disease control rating” value turned out to be 100%. Besides, in the test on Alternaria solani, the “Test F disease control rating” value was determined as 100%. In addition, the “Test C disease control rating” value in test [2] stood at 99%.

The values are drawn from patent publication US20240308968A1, “FUNGICIDAL SUBSTITUTED HETEROCYCLES” (FMC Corporation, priority 2021, published 2024).
